Results on four compounds are retold here after patent US5741664A, “Subtilisin variants capable of cleaving substrates containing dibasic residues” (priority 1995, dated 1998).

Assay [1] deals with T1, KEX2 (yeast pro-hormone processing protease) (Saccharomyces cerevisiae, UniProt P13134).
T1 sequence (P13134 114-613 limits assumed): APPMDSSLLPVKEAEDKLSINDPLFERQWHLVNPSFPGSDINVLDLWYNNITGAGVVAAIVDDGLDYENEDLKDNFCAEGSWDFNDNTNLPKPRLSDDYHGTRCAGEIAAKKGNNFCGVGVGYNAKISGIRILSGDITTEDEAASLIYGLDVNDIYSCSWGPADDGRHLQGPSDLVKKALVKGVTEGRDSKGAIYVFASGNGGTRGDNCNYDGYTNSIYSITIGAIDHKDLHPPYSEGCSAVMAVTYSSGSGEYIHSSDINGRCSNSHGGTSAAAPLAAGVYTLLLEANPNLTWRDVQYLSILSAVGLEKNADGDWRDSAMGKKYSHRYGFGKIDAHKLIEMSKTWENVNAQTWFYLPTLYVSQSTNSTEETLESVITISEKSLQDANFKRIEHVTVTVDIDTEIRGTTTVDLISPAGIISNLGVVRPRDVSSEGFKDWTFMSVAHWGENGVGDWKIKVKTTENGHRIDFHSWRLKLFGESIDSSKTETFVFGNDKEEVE
Conditions: KEX2 cleaving Boc-RVRR-MCA; Brenner and Fuller 1992; cited from earlier work.

For assay [2], the target named is T2, Bacillus amyloliquefaciens subtilisin BPN' variant G166D (Bacillus amyloliquefaciens, UniProt P00782, G273D).
T2 construct: made in house; host or cells: Bacillus subtilis BG2036 (secreted, purified from culture supernatant)
T2 sequence (P00782 108-382 G273D): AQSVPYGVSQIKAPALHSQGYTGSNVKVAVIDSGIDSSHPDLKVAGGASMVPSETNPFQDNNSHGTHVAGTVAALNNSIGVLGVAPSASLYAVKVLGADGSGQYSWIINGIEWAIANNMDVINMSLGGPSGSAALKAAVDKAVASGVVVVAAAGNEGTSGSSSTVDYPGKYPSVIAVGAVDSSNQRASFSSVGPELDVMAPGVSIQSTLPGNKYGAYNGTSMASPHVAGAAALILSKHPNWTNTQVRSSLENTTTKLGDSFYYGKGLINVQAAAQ
Nature of the assay: hydrolysis of p-nitroanilide tetrapeptide substrates, initial rates. It counts as biochemical. To be noted: suc-AAPX-pna series; 20 mM Tris-Cl pH 8.2, 4% DMSO, 25 C. From the text: To probe the effects of the G166E and G166D on specificity at the P1 position we used substrates having the form suc-AAPX-pna (SEQ ID NO: 69) where X was either Lys (SEQ ID NO: 58), Arg (SEQ ID NO: 59), Phe (SEQ ID NO: 56), Met (SEQ ID NO: 60) or Gln (SEQ ID NO: 61). Whereas the wild-type enzyme preferred Phe>Met>Lys>Arg>Gln, the G166E preferred Lys~Phe>Arg~Met>Gln, and G166D preferred Lys>Phe~Arg~Met>Gln. Thus, both the acidic substitutions at position 166 caused a shift in preference for basic residues as previously reported (Wells, J. A., Powers, D. B., Bott, R. R., Graycar, T. P. and Estell, D. A. (1987a), Proc. Natl. Acad. Sci. USA 84:1219-1223).
(§1) Subtilisins were assayed by measuring the initial rates of hydrolysis of p-nitroanilide tetrapeptide substrates in 0.4 mL 20 mM Tris-Cl pH 8.2, 4 % (v/v) dimethyl sulfoxide at (25±0.2)° C. as described previously (Estell, D. A., Graycar, T. P., Miller, J. V., Powers, D. B., Burnier, J. P., Ng, P. G. and Wells, J. A. [1986] Science 233:659-663). Enzyme concentrations [E]0 were determined spectrophotometrically using E280 nm 0.1%=1.17 (Matsubara, H.; Kasper, C B.; Brown, D. M.; and Smith, E. L. (1965) J. Biol. Chem.,240:1125-1130.), and were typically 5-50 nM in reactions. Initial rates were determined for nine to twelve different substrate concentrations over the range of 0.001-2.0 mM. […]

The target of assay [3] is T3, Bacillus amyloliquefaciens subtilisin BPN' variant N62D/G166E (Bacillus amyloliquefaciens, UniProt P00782, G273E/N169D).
T3 construct: made in house; host or cells: Bacillus subtilis BG2036 (secreted, purified from culture supernatant)
T3 sequence (P00782 108-382 N169D/G273E): as the sequence (P00782 108-382 G273D) above, with N62D, D166E counted along it
Described as above. In kind it is biochemical. To be noted: suc-AAXX-pna series; 20 mM Tris-Cl pH 8.2, 4% DMSO, 25 C. As to the method: (§2) Despite the less than additive effects seen for the two charged substitutions in the S2 site, we decided to combine the best S2 site variant (N62D) with either of the acidic substitutions in the S1 site. The two double mutants, N62D/G166E and N62D/G166D, were analyzed with substrates having the form, suc-AAXX-pna (SEQ ID NO: 71) where XX was either KK (SEQ ID NO: 66), KR (SEQ ID NO: 67), KF (SEQ ID NO: 62), PK (SEQ ID NO: 58), PF (SEQ ID NO: 56) or AF (SEQ ID NO: 63)(FIG. 4). The wild-type preference was AF>PF~KF>KK~PK>KR, whereas the double mutants had the preference KK>KR>KF>PK~AF>PF. […]
as §1

The target in assay [4] is T4, Bacillus amyloliquefaciens subtilisin BPN' variant N62D/G166D (mature enzyme SEQ ID NO: 72) (Bacillus amyloliquefaciens, UniProt P00782, G273D/N169D).
T4 construct: made in house; host or cells: Bacillus subtilis BG2036 (secreted, purified from culture supernatant)
T4 sequence (P00782 108-382 N169D/G273D): as the sequence (P00782 108-382 G273D) above, with N62D counted along it
The assay is described as above. In kind it is biochemical. To be noted: suc-AAXX-pna series; 20 mM Tris-Cl pH 8.2, 4% DMSO, 25 C. As to the method:
as §2, §1

Assay [5] has as its target T5, subtilisin (subtilisin BPN' from Bacillus amyloliquefaciens, wild type) (Bacillus amyloliquefaciens, UniProt P00782).
T5 sequence (P00782 108-382): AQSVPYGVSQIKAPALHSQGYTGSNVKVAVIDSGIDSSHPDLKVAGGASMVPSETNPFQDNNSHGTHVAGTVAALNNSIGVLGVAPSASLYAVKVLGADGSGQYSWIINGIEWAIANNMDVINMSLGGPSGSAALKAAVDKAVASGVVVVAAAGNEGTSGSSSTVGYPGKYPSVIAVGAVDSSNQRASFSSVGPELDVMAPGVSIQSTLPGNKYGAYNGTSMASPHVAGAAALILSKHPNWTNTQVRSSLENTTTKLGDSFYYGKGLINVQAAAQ
Conditions: subtilisin cleaving suc-AAPF-pna; Estell et al. 1986; cited from earlier work.

Residues, ends and D or L forms follow the SMILES beside them.

On to `Cc1cc(=O)oc2cc(NC(=O)[C@H](CCCNC(=N)N)NC(=O)[C@H](CCCNC(=N)N)NC(=O)[C@@H](NC(=O)[C@H](CCCNC(=N)N)NC(=O)OC(C)(C)C)C(C)C)ccc12` [Boc-RVRR-MCA, N-t-butoxy carbonyl-arginine-valine-arginine-arginine-7-amido-4-methyl coumarin] (HELM PEPTIDE1{[CC(C)(C)OC(=O)[*:2]].R.V.R.R.[Cc1cc(=O)oc2cc(N[*:1])ccc12]}$$$$V2.0), for which the kcat/Km (commonly the turnover number divided by the Michaelis constant) in assay [1] was 1e+06 M⁻¹ s⁻¹.

Take `C[C@H](NC(=O)CCC(=O)O)C(=O)N[C@@H](C)C(=O)N1CCC[C@H]1C(=O)N[C@@H](CCCCN)C(=O)Nc1ccc([N+](=O)[O-])cc1` [Lys P1 substrate] (HELM PEPTIDE1{[O=C(O)CCC(=O)[*:2]].A.A.P.K.[O=[N+]([O-])c1ccc(N[*:1])cc1]}$$$$V2.0): in assay [2], the “ratio of catalytic efficiencies (kcat/Km), Lys P1 substrate versus Phe P1 substrate” value is reported as “about 3 times faster”. `C[C@H](NC(=O)CCC(=O)O)C(=O)N[C@@H](C)C(=O)N[C@@H](CCCCN)C(=O)N[C@@H](CCCCN)C(=O)Nc1ccc([N+](=O)[O-])cc1` [Lys-Lys substrate] (HELM PEPTIDE1{[O=C(O)CCC(=O)[*:2]].A.A.K.K.[O=[N+]([O-])c1ccc(N[*:1])cc1]}$$$$V2.0): the “ratio of catalytic efficiencies (kcat/Km), Lys-Lys substrate versus Lys-Phe substrate” value in assay [3] is given as “about 8 times faster”; in assay [4], 18 times faster. For `C[C@H](NC(=O)CCC(=O)O)C(=O)N[C@@H](C)C(=O)N1CCC[C@H]1C(=O)N[C@@H](Cc1ccccc1)C(=O)Nc1ccc([N+](=O)[O-])cc1` [suc-AAPF-pna, N-succinyl-alanine-alanine-proline-phenylalanyl-p-nitroanalide] (HELM PEPTIDE1{[O=C(O)CCC(=O)[*:2]].A.A.P.F.[O=[N+]([O-])c1ccc(N[*:1])cc1]}$$$$V2.0), the kcat/Km in assay [5] is 300000 M⁻¹ s⁻¹.
